The values below come from US20200352918A1, “COMPOUNDS AND METHODS FOR TREATING OR PREVENTING FIBROSIS” (priority 2019, published 2020).

Counter-ions that a name gives are not always drawn.

Experiment [1] has as its system iFA phenotype of mesenchymal-like cells on 13 kPa hydrogels. Nature of the experiment: iFA-prevention phenotypic high-content drug screen (iFA model). The following applies: for Dose response: 20 point dose course, picomolar to millimolar; for Efficacy in secondary screen: assay repeated with compound sourced commercially or from additional library materials; for Prevention/rescue of the iFA phenotype: 3.75 μgm/ml IFNγ (FIG. 25C). Type of experiment: cell-based, human. The procedure:
Mesenchymal-like cells were cultured on 13 kPa functionalized polyacrylamide gels that were prepared as follows. 187.5 μl of 40% acrylamide, 60 μl of 2% bis-acrylamide and 8.55 μl of sodium bisulfate in a final volume of 990 μl of water was incubated for 20 min at room temperature to degas the mixture. To this mixture, 0.10% ammonium persulfate and 0.15% TEMED were added, mixed and 100 μl of the solution was added onto a 0.4% 3-(Trimethoxysily) propyl methacrylate pH 3.5 treated coverslip. A 2% dimethyl dichlorosilane in chloroform treated round glass coverslip was then inverted on the acrylamide solution and allowed to polymerize for 15 min between the two surfaces. The top coverslip was gently removed, and the bottom coverslips with the hydrogel were transferred to appropriate multi-well low adherent tissue culture plate containing coupling buffer (0.1 M sodium phosphate dibasic, 0.1 M sodium phosphate monobasic) pH 8. To functionalize the hydrogel, 1 part of 0.1 M p-benzoquinone in dioxane was added to the hydrogels containing 4 parts of coupling buffer and incubated at 37° C. for 30 min. The gel was then successively washed with 20% dioxane in water, water, 0.1 M sodium acetate buffer at pH 4.0 containing 1.0 M sodium chloride, 0.1 M sodium bicarbonate solution at pH 8.5 containing 1.0 M sodium chloride, and finally with coupling buffer at pH 7.5. The hydrogels were then coated with 0.1% gelatin for 2 hrs prior to seeding the cells. Cells were seeded at a density of 3000 cells/cm^2.
A phenotypic high-content drug screen was prepared to identify compounds capable of preventing the iFA phenotype in a 96-well format. An ImageXpress XL high-throughput imager with a 4× Plan objective (N/A 0.20) was used with image based focusing. Briefly, 100 μL media were plated in each well of 96 well plate using a Thermo Multidrop non-contact dispenser. Using a custom V&P pin tool mounted to a Beckman FX liquid handler, 1.5 μL compounds or DMSO were added. Mesenchymal-like cells were added as a suspension using the Multidrop at a density of 3.5×10^3 cells/well. The resulting compound concentration was 10 μM. Cells were imaged after 7 days of incubation at 37° C. and 5% CO2: A final of 0.5 μg/ml of Calcein AM and/or 10 μg/ml propidium iodide (viability dye) with 1 μg/ml Hoechst 33342 were added and imaged using the ImageXpress XL system. Data mining was performed using a custom module consisting of the following steps: The image background was removed using a top-hat filter with 25 μm round shape polisher. Next, cellular aggregates and individual spindle-shaped cells were identified. Aggregates of cells were defined by size with a cut-off of 60 to 200 micron and an intensity of at least 200 gray scales over background. Individual spindle-shaped cells were identified as smaller objects with cut-offs from 15 to 100 micron and a lower intensity of at least 70 gray scales over background.
Additional morphometric measurements were made by counting labeled cell nuclei and measuring total area covered with cells per well. The data resulting from the screen were batch exported through MetaXpress and uploaded into a Collaborative Drug Discovery (CDD) cloud based database (Ekins and Bunin, 2013, Methods in molecular biology 993, 139-154.). Hits were selected on a cut-off of more than 3 standard deviations from mean using data normalized to reference wells in each plate. IC50 values (the half maximal inhibitory concentration) from confirmation experiments were calculated from dose-response signal curves using the Prism software (GraphPad Software).
Signal-to-background (S/B) ratio, standard variation and variation coefficients were calculated as the signal of DMSO treated wells divided by the signal of the hit compound (AA5) treated wells. […]

The subject of a further experiment is iFA model. Nature of the experiment: Fibrotic marker, cytokine and repair modulator expression in the iFA model (qPCR, immunoblotting, luminex, immunofluorescence). Type of experiment: cell-based, human. The following applies: 3.75 μgm/ml IFNγ vs DMSO-treated controls. The procedure: The Milliplex human cytokine/chemokine Panel IV, human TIMP Panel 2, and human TGFβ 1,2,3 magnetic bead kits (EMD Millipore) were used per manufacturer's instructions. Prior to plating, all samples tested for human TGFβ only were activated and neutralized with 1.0 N HCl and 1.0 N NaOH, respectively. Briefly, 25 μl of undiluted or treated cell culture supernatant samples were mixed with 25 μl of magnetic beads and allowed to incubate overnight at 4° C. while shaking. After washing the plates with wash buffer in a Biotek ELx405 washer, 25 μl of biotinylated detection antibody was added and incubated for 1 hour at room temperature while shaking. 25 μl of streptavidin-phycoerythrin conjugate was then added to the reaction mixture and incubated for another 30 minutes at room temperature while shaking. Following additional washes, beads were resuspended in sheath fluid, and fluorescence was quantified using a Luminex 200 instrument. Similarly, a custom magnetic Luminex assay kit of select analytes (R&D Systems) was used per manufacturer's instructions. Cell culture supernatants were prepared with a 2-fold dilution. 50 μl of diluted sample were added to 50 μl of provided micro-particle cocktail and incubated for 2 hours at room temperature while shaking. After washing with wash buffer, 50 μl of biotin antibody cocktail was added and incubated for 1 hour at room temperature while shaking. Following additional washes, 50 μl of diluted Streptavidin-PE was then added for incubation for 30 minutes at room temperature while shaking. The plate was then washed again and the micro-particles resuspended in 100 μl wash buffer. After an additional 2-minute incubation while shaking, the data was acquired using a Luminex 200 instrument.
In-vitro cultures of PF and cells in the iFA model were washed once with PBS and total RNA from the samples were extracted using the RNeasy Mini Kit (Qiagen) according to the manufacturer's instructions. For the lung slice cultures (LSC), tissues were snap-frozen after treatment and stored at −80° C. until RNA isolation. Lung slices were homogenized using a handheld homogenizer and passing the homogenate through a Qiashredder (Qiagen). Total RNA from the LSC and cells from the disease model were extracted using the RNeasy Mini Kit (Qiagen) according to the manufacturer's instructions. The RNA concentrations were measured on a NanoDrop ND-1000 spectrophotometer. Single-stranded cDNA was synthesized from 200 ng of total RNA using Superscript IV and random hexamer primers (Invitrogen) in a volume of 20 μl. cDNA was then used for qRT-PCR analysis. PCR reactions were performed using Taqman Gene Expression Assay mix (Applied Biosystems) according to the manufacturer's instructions.
qRT-PCR reactions were performed using the StepOnePlus (Applied Biosystems). Relative gene expression was calculated using the 2^−ΔΔCt method, with 18S Cat. #4331182 (Invitrogen) as housekeeping gene. For the RT^2qPCR arrays, cDNA from DMSO and AA5 treated iFA and was added to the RT^2 qPCR iTaq Universal SYBR green Master Mix (Biorad). 20 μl of the experimental cocktail was added to each well of the Fibrosis PCR (Qiagen). Real-Time PCR was performed on the StepOnePlus qPCR system (Applied Biosystems) using SYBR green detection according to the manufacturer's recommendations. All data from the PCR was collected and analyzed by SA Bioscience's PCR Array Data Analysis Web Portal.
Cells grown on coverslips were fixed in 4% paraformaldehyde (PFA) for 10 min at room temperature and washed three times with TBS buffer supplemented with 0.1% Tween 20 (TBST). Lung samples were fixed overnight in 4% PFA at room temperature, washed 3 times in PBS, dehydrated and then infiltrated and embedded with wax. Five-micron sections were collected on glass slides, deparaffinized and rehydrated. Heat-induced epitope retrieval was performed using 1 mM EDTA in a microwave. […]

Setting [2] is: library compound plated with cells on day 1 on hydrogel, phenotype on day 7, 10 μM.

As to `COC(=O)/C=C/c1cc(O)ccc1O`, in experiment [1], the Dose response result is recorded as “++ (++ = moderate effect)” and the “Efficacy in secondary screen” value is “++ (++ = moderate effect)”. Further, the “Efficacy in primary screen” value in experiment [1] (setting [2]) was “+++ (+++ = strong effect)”.
Regarding `CN(C)c1ccc(C(=C2C=CC(=[N+](C)C)C=C2)c2ccc(N(C)C)cc2)cc1.[Cl-]`, the “Efficacy in secondary screen” value in experiment [1] is on record as “++ (++ = moderate effect)”. Further, the “Efficacy in primary screen” value in experiment [1] (setting [2]) is on record as “+++ (+++ = strong effect)”.
For `NC(CP(=O)(O)O)C(=O)O` (racemic) [±)-2-Amino-3-phosphonopropionic acid] the same measures were “+” and “+++ (+++ = strong effect)”.
`CN1CCC2(C)c3cc(O)ccc3N(C)C12.O=C(O)/C=C/C(=O)O` (single isomer, unassigned; (-)) [(−)Eseroline fumarate salt., (−)Eseroline fumarate salt]: the “Efficacy in secondary screen” value in experiment [1] is reported as “++ (++ = moderate effect)”. Moreover, the “Efficacy in primary screen” value in experiment [1] (setting [2]) was “+++ (+++ = strong effect)”.
As for `COc1ccc2c(c1)c(CC(=O)O)c(C)n2Cc1ccc(Cl)cc1` [1-(4-Chlorobenzyl)-5-methoxy-2-methylindole-3-acetic acid], the “Efficacy in secondary screen” value in experiment [1] is reported as “+”. The “Efficacy in primary screen” value in experiment [1] (setting [2]) was “+++ (+++ = strong effect)”.
Take `S=C(Nc1ccccc1)Nc1nccs1` [1-Pheny1-3-(2-thiazolyl)-2-thiourea]: the “Efficacy in secondary screen” value in experiment [1] is reported as “+”. In addition, in experiment [1] (setting [2]), the “Efficacy in primary screen” value is “+++ (+++ = strong effect)”.
For the molecule `CCCCC/C=C\C/C=C\C/C=C\C/C=C\CCCC(=O)NCc1ccc(O)c(OC)c1` [Arvanil], the “Efficacy in secondary screen” value in experiment [1] is on record as “+”. In addition, in experiment [1] (setting [2]), the “Efficacy in primary screen” value is reported as “+++ (+++ = strong effect)”.
For `CC(NC(C)(C)C)C(=O)c1cccc(Cl)c1` (stereo not drawn) [Bupropion hydrochloride], the “Efficacy in secondary screen” value in experiment [1] is reported as “+”. In experiment [1] (setting [2]), the “Efficacy in primary screen” value is reported as “+++ (+++ = strong effect)”.
On to `CN1CCN(c2cccc(Nc3nc4c(-c5ccc(S(C)(=O)=O)cc5)cccn4n3)c2)CC1` [CEP-33779 JAK2 Inhibitor], for which the “Efficacy in secondary screen” value in experiment [1] is recorded as “++ (++ = moderate effect)”. The “Efficacy in primary screen” value in experiment [1] (setting [2]) is on record as “+++ (+++ = strong effect)”.
For `CC(C)(CO)Cc1cc(C(C)(C)C)c(O)c(C(C)(C)C)c1` [CGP-7930] the same measures were “+” and “+++ (+++ = strong effect)”.
As to `CC(C)(C=O)Cc1cc(C(C)(C)C)c(O)c(C(C)(C)C)c1` [CGP-13501], the “Efficacy in secondary screen” value in experiment [1] is reported as “+”. The “Efficacy in primary screen” value in experiment [1] (setting [2]) is given as “+++ (+++ = strong effect)”.
As for `CCCNC(=O)NS(=O)(=O)c1ccc(Cl)cc1` [Chlorpropamide], the “Efficacy in secondary screen” value in experiment [1] is given as “+”. Further, the “Efficacy in primary screen” value in experiment [1] (setting [2]) is recorded as “+++ (+++ = strong effect)”.
Turning to `Cc1cc(C2CCCCC2)n(O)c(=O)c1.NCCO` [Ciclopirox ethanolamine., Ciclopirox ethanolamine], the “Efficacy in secondary screen” value in experiment [1] is “++ (++ = moderate effect)”. Moreover, the “Efficacy in primary screen” value in experiment [1] (setting [2]) is listed as “+++ (+++ = strong effect)”.
Take `O=P1(N(CCCl)CCCl)NCCCO1` (stereo not drawn) [Cyclophosphamide]: in experiment [1], the “Efficacy in secondary screen” value is on record as “+”. Besides, the “Efficacy in primary screen” value in experiment [1] (setting [2]) is reported as “+++ (+++ = strong effect)”.
As for `CSCC[C@@H](N)C(=O)O` [D-methionine], the “Efficacy in primary screen” value in experiment [1] (168 h, 10 µM) is recorded as “+++ (+++ = strong effect)”. Moreover, the “Efficacy in secondary screen” value in experiment [1] is given as “++ (++ = moderate effect)”.
For the molecule `COC(=O)Nc1nc2ccc(Sc3ccccc3)cc2[nH]1` [Fenbendazole., Fenbendazole], the “Efficacy in secondary screen” value in experiment [1] is on record as “++ (++ = moderate effect)”. Also, in experiment [1] (setting [2]), the “Efficacy in primary screen” value is listed as “+++ (+++ = strong effect)”.
Regarding `N#CC(C#N)=C(N)/C(C#N)=C/c1cc(O)c(O)c(O)c1` [Tyrphostin 51], the “Efficacy in secondary screen” value in experiment [1] is given as “+”. Also, the “Efficacy in primary screen” value in experiment [1] (setting [2]) is given as “+++ (+++ = strong effect)”.
`C[C@@H](N)[C@H]1CC[C@H](C(=O)Nc2ccncc2)CC1` [Y-27632 Rock Inhibitor]: the “Efficacy in secondary screen” value in experiment [1] is listed as “++ (++ = moderate effect)”. The “Efficacy in primary screen” value in experiment [1] (setting [2]) is “+++ (+++ = strong effect)”.
For `NCCCC(=O)O` [γ-Aminobutyric acid] the same measures were “+” and “+++ (+++ = strong effect)”.

B1: Recombinant Human IFN-gamma Protein: Recombinant Human IFN-gamma Protein; IFNs are known anti-fibrotic cytokines (protein, UniProt P01579 24-161, looked up)
Interferon gamma: QDPYVKEAENLKKYFNAGHSDVADNGTLFLGILKNWKEESDRKIMQSQIVSFYFKLFKNFKDDQSIQKSVETIKEDMNVKFFNSNKKKRDDFEKLTNYSVTDLNVQRKAIHELIQVMAELSPAAKTGKRKRSQMLFRG
As for B1, in experiment [1], the “Prevention/rescue of the iFA phenotype” value is “Partial prevention of the iFA phenotype”, the Dose response entry was “+” and the “Efficacy in secondary screen” value is reported as “++ (++ = moderate effect)”. Moreover, in experiment [1] (listed as recombinant IFNγ), the “Prevention/rescue of the iFA phenotype” value is reported as “partially rescued the iFA phenotype”. The “Efficacy in primary screen” value in experiment [1] (setting [2]) is listed as “+++ (+++ = strong effect)”. Further, the “α-SMA and Collagen I (IF)” value with iFA model is “reduced”.
